Experimental data taken from PubChem BioAssay (NCI).
“And” between values parts separate entries of the source, which are not always exact repeats. Identical values can stand only once.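 Results reflect a 48-hour exposure of cells in 96-well plates to compound at five concentrations. GI50 is the concentration that inhibits growth by half. TGI: concentration producing complete growth inhibition.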

Assays:
Assay in all cases: growth of human tumour cells (NCI), 48 h
EKVX NSCLC = test system: EKVX NSCLC
PC-3 prostate = test system: PC-3 prostate
NCI-H226 lung = test system: NCI-H226 lung
UO-31 renal = test system: UO-31 renal
U251 CNS = test system: U251 CNS
CAKI-1 renal = test system: CAKI-1 renal
MOLT-4 leukemia = test system: MOLT-4 leukemia
SF-295 CNS = test system: SF-295 CNS
SF-539 CNS = test system: SF-539 CNS
SF-268 CNS = test system: SF-268 CNS

Structure (SMILES)	GI50 (EKVX NSCLC)	TGI (EKVX NSCLC)	GI50 (PC-3 prostate)	TGI (PC-3 prostate)	GI50 (NCI-H226 lung) [µM]	TGI (NCI-H226 lung)	GI50 (UO-31 renal)	TGI (UO-31 renal)	GI50 (U251 CNS) [µM]	TGI (U251 CNS)	GI50 (CAKI-1 renal)	TGI (CAKI-1 renal)	GI50 (MOLT-4 leukemia)	TGI (MOLT-4 leukemia)	GI50 (SF-295 CNS) [µM]	TGI (SF-295 CNS)	GI50 (SF-539 CNS) [µM]	TGI (SF-539 CNS)	GI50 (SF-268 CNS) [µM]	TGI (SF-268 CNS)
C/C(=N/O)c1ccc2c(c1)/C(=N/O)c1ccccc1-2	21.2 µM	66.1 µM	24.2 µM	57.4 µM	22.2	49.7 µM	18.7 µM	38.2 µM	21.2	46 µM	20.3 µM	44.8 µM	20.2 µM	49.4 µM	22.6	50.4 µM	21.6	50 µM	32.2	> 100 µM
COc1cc(/C=C/C(=O)N2CCC=CC2=O)cc(OC)c1OC	2.94 µM	14.2 µM	7.36 µM	28.5 µM	2.41	6.55 µM	1.78 µM	5.09 µM	3.19	11 µM	–	–	2.74 µM	9.48 µM	6.37	21.1 µM	1.82	4.47 µM	3.2	12.6 µM
O=C(/C=C/C(Cl)(Cl)Cl)Nc1ccc(Cl)cc1	–	13.7 µM	–	26.5 µM	–	36.6 µM	–	1.91 µM	–	26.2 µM	–	2.02 µM	–	3.28 µM	–	28.8 µM	–	3.97 µM	–	9.82 µM
NC(=O)CC1(O)C=C(Br)C(=O)C(Br)=C1	5.84 µM	19.7 µM	7.65 µM	24.9 µM	20.5	46.3 µM	2.17 µM	11.2 µM	10.6	24.1 µM	0.94 µM	2.96 µM	2.29 µM	5.35 µM	12.6	26.5 µM	2.95	9.15 µM	9.09	21.2 µM
COc1cccc(/C=C/c2ccnc3ccccc23)c1OC	–	> 10 µM	–	> 10 µM	–	> 10 µM	–	> 10 µM	–	> 10 µM	–	> 10 µM	–	> 10 µM	–	> 10 µM	–	> 10 µM	–	> 10 µM
COc1ccc(Cl)cc1Nc1nc(C(F)(F)F)ccc1C(=O)N/N=C/c1cccnc1	2.98 µM	> 100 µM	3.8 µM	> 100 µM	3.49	> 100 µM	4.1 µM	> 100 µM	2.4	> 100 µM	3.84 µM	> 100 µM	1.66 µM	> 100 µM	1.28	9.52 µM	5.12	> 100 µM	2.52	61.5 µM
COc1ccc(-c2[nH]nc(N)c2-c2cc(OC)c3c(c2)OCO3)cc1	9.09 µM	> 100 µM	14.3 µM	> 100 µM	8.36	> 100 µM	4.35 µM	69.7 µM	4.29	> 100 µM	3.98 µM	> 100 µM	3.73 µM	37.5 µM	3.92	32.4 µM	12.8	48.2 µM	4.74	> 100 µM
O=C1C=CC(=Nc2cccc3c(N=C4C=CC(=O)O4)cccc23)O1	–	35.2 µM	–	> 100 µM	–	> 100 µM	–	> 100 µM	–	> 100 µM	–	35.5 µM	–	19.8 µM	–	> 100 µM	–	36.1 µM	–	> 100 µM
CCCCCCCCCCCCCCCCCCOc1ccccc1CC(=O)OCC[N+](CC)(CC)CC	2.15 µM	8.44 µM	1.2 µM	3.18 µM	1.27	5.64 µM	5.52 µM	14.5 µM	1.24	3.56 µM	1.42 µM	4.47 µM	1.26 µM	3.07 µM	1.27	5.11 µM	1.62	5.82 µM	1.48	6.32 µM
COc1ccc(C(=O)O[C@H]2[C@H](O[C@H]3[C@@H](O)COC(O[C@H]4C[C@H]5[C@@H]6CC=C7C[C@@H](O)CC[C@]7(C)[C@H]6CC[C@]5(C)[C@H]4[C@H](C)C(=O)CCC(C)C)[C@@H]3OC(C)=O)OC[C@@H](O)[C@@H]2O)c(C)c1 (stereo partly drawn)	1.26 µM	26.9 µM	< 0.01 µM	2.14 µM	0.0423	30.6 µM	< 0.01 µM	0.0335 µM	< 0.01	18.7 µM	< 0.01 µM	1.08 µM	< 0.01 µM	11.2 µM	< 0.01	< 0.01 µM	< 0.01	< 0.01 µM	< 0.01	3.4 µM
CCOC(=O)/C(C#N)=C1\SS/C(=C(/C#N)C(=O)OCC)S1	19.6 µM	50.4 µM	19.7 µM	40.7 µM	19.6	38.6 µM	13.2 µM	26.1 µM	19	38 µM	4.38 µM	18.6 µM	10.8 µM	57.8 µM	> 100	> 100 µM	22.2	42.8 µM	20.5	41 µM
COC1=C(OC)C(=O)C(Sc2ccc3ccccc3c2)=CC1=O	–	30.5 µM	–	26.1 µM	–	27.2 µM	–	16.3 µM	–	21.4 µM	–	32.8 µM	–	4.86 µM	–	23.8 µM	–	> 57.7 µM	–	36.3 µM
CC(C)(C)NC(=O)[C@H]1CC[C@H]2[C@@H]3CC[C@H]4NC(=O)C=C[C@]4(C)[C@H]3CC[C@]12C	70.1 µM and > 100 µM	> 100 µM	61 µM and > 100 µM	> 100 µM	> 100	> 100 µM	71.1 µM and > 100 µM	> 100 µM	> 100	> 100 µM	77.9 µM and > 100 µM	> 100 µM	66 µM and > 100 µM	> 100 µM	> 100	> 100 µM	> 100	> 100 µM	> 100	> 100 µM
N#Cc1ccccc1C#C/C=C\C#CC#C/C=C\C#Cc1ccccc1C#N	16.5 µM	> 100 µM	19.6 µM	> 100 µM	29.7	> 100 µM	21.8 µM	> 100 µM	12.4	47.1 µM	20.1 µM	73.4 µM	15.6 µM	89.3 µM	16.3	53 µM	22.6	> 100 µM	12	> 100 µM
Nc1nnnc2nc[nH]c12	0.7 µM	> 100 µM	2.42 µM	> 100 µM	1.05	4.86 µM	0.523 µM	> 100 µM	2.39	> 100 µM	0.221 µM	–	2.62 µM	> 100 µM	0.78	> 29.8 µM	1.63	13.5 µM	3.19	> 100 µM
CCN(CC)c1ccc2nc3c4ccccc4c(=O)cc-3n(-c3ccccc3)c2c1	1.04 µM	5.85 µM	1.9 µM	7.58 µM	2.04	5.81 µM	0.786 µM	3.48 µM	1.49	6.61 µM	1.32 µM	4.52 µM	2.36 µM	7.48 µM	1.29	3.28 µM	2.49	6.8 µM	2.85	12.9 µM
C=C1C(=O)O[C@H]2[C@H]1CC/C(Cn1cc(-c3cccc(Cl)c3)nn1)=C\CC[C@@]1(C)O[C@@H]21	1.57 µM	2.92 µM	1.98 µM	3.77 µM	1.71	3.75 µM	1.08 µM	2.31 µM	1.61	3.01 µM	0.869 µM	2.13 µM	0.31 µM	1.25 µM	3.41	13 µM	0.258	0.791 µM	1.59	3.46 µM
COc1ccc2nc3cc([N+](=O)[O-])ccc3c(NNc3ccccc3)c2c1	–	> 100 µM and 71.8 µM	10.4 µM	40.4 µM and > 100 µM	1.63	18.1 µM and 7.66 µM	13.1 µM	34.3 µM and > 100 µM	8.08	22 µM and > 100 µM	–	35.1 µM and > 100 µM	12.5 µM	65.8 µM and 74.4 µM	6.73	25.2 µM and > 100 µM	11.7	26.4 µM and 75 µM	7.35	30.8 µM and > 100 µM
O=C(CCl)Nc1cc(Cl)c(Cl)cc1Cl	–	4.67 µM	–	3.29 µM	–	2.48 µM	–	–	–	3.94 µM	–	4.88 µM	–	> 10 µM	–	> 10 µM	–	3.04 µM	–	4.62 µM
C[C@@H](NC(=O)c1ncnc(N)c1Cl)c1ncc(C(=O)Nc2cc(C(F)(F)F)c(Cl)cn2)s1	–	–	25.3 µM	> 76.6 µM	15.4	74.3 µM	8.98 µM	44.4 µM	19.5	> 68.5 µM	25.4 µM	71.6 µM	23 µM	68.7 µM	13.6	34.7 µM	20.3	> 78.4 µM	26.8	> 71.6 µM
O=S(=O)(c1ccccc1)N1CN2CN(C1)CN(S(=O)(=O)c1ccccc1)C2	–	> 100 µM	–	> 100 µM	–	> 100 µM	–	> 100 µM	–	> 100 µM	–	> 100 µM	–	–	–	> 100 µM	–	> 100 µM	–	–
O=C(O)c1c(Cl)c(Cl)c(Cl)c(Cl)c1C(=O)Nc1ccc2cn[nH]c2c1	–	> 100 µM	–	> 100 µM	–	> 100 µM	–	> 100 µM	–	> 100 µM	–	> 100 µM	–	–	–	> 100 µM	–	> 100 µM	–	> 100 µM
O=C(Nc1ccccc1C(F)(F)F)c1ccc(NC2=C(Cl)C(=O)N(Cc3ccccc3)C2=O)cc1	86.9 µM	> 100 µM	12.2 µM	> 100 µM	13.6	92.2 µM	–	–	23.5	> 100 µM	1.97 µM	4.15 µM	3.14 µM	31.6 µM	31.8	> 100 µM	23	59.5 µM	24.3	94.6 µM
O=C1c2cccnc2C(=O)c2c1c(C(=O)NCCn1ccnc1)c1ccccn21	4.54 µM	18.6 µM	3.33 µM	15.2 µM	–	–	4.07 µM	41.6 µM	2.96	9.18 µM	15.1 µM	34.5 µM	3.89 µM	47.9 µM	2.66	14 µM	2.45	6.47 µM	2.86	16.8 µM
Cc1ccc(-c2nc(N3CCNCC3)c3oc(-c4ccccc4)nc3n2)cc1	3.94 µM	> 100 µM	1.7 µM	3.19 µM	–	–	1.43 µM	2.78 µM	1.79	3.24 µM	1.73 µM	3.26 µM	1.91 µM	3.67 µM	1.69	3.16 µM	1.78	3.28 µM	2.07	5.07 µM
C/C(=N\n1c(O)c(C#N)cc(C#N)c1=O)c1ccncc1	> 100 µM	> 100 µM	> 100 µM	> 100 µM	> 100	> 100 µM	> 100 µM	> 100 µM	> 100	> 100 µM	> 100 µM	> 100 µM	> 100 µM	> 100 µM	> 100	> 100 µM	–	–	> 100	> 100 µM
COC(=O)C1(C)CC2C(C)(CCC3(C)C4=CC=C5C(=CC(=O)C(O)=C5C)C4(C)CCC23C)CC1O (stereo not drawn)	–	2.7 µM	–	3.12 µM	–	4.46 µM	–	3.19 µM	–	–	–	2.27 µM	–	0.931 µM	–	3.43 µM	–	3.3 µM	–	2.63 µM
CCCCCC[C@@H](C)Nc1nc2ccccc2c2occc12	0.39 µM	5 µM	22.9 µM	71.6 µM	–	–	2.05 µM	17.2 µM	11.7	23.9 µM	13.6 µM	32.1 µM	20.9 µM	> 100 µM	1.99	19.5 µM	10.5	22.5 µM	14.7	38.7 µM
